Measured values taken from article PMC9823088, “The oral selective estrogen receptor degrader GDC-0810 (ARN-810) in postmenopausal women with hormone receptor-positive HER2-negative (HR + /HER2 −) advanced/metastatic breast cancer” (Breast Cancer Research and Treatment, 2022).

How the values were obtained:
[1] = Study drug exposure (treatment duration); type: in vivo, human; settings: phase Ia
Source text: Patients in all three study phases continued treatment until unacceptable toxicity, disease progression, or consent withdrawal. See Supplementary Methods for other study treatment details.

CYP2B6 = system: CYP2B6; parameters: method as in printed; settings: stated as reason for dose adjustments; ref not given; cited from earlier work
[2] = system: tamoxifen-sensitive ER + breast cancer xenograft; settings: tamoxifen-sensitive ER + breast cancer xenograft models; cited from earlier work
[3] = Endometrial thickness by transvaginal ultrasound; type: in vivo, human
Method: Blood samples were collected for pharmacokinetic assessments. Tumor assessments were performed at screening and every 8 weeks from cycle 1, day 1 (C1D1). Radiographic assessment of objective tumor response or disease progression was based on Response Evaluation Criteria in Solid Tumors (RECIST v1.1). Transvaginal ultrasound scans were performed to monitor endometrial thickness at screening, at every 6 months from C1D1, and at the end of treatment. Imaging with [^18F]-fluoroestradiol positron emission tomography (FES-PET) was performed to quantify ER expression in tumors and to assess for pharmacodynamic response. Further assessment details are provided in Supplementary Methods. […]
Tumor assessments were performed at screening and every 8 weeks from cycle-1, day-1 (C1D1). Radiographic assessment of objective tumor response or disease progression was based on Response Evaluation Criteria in Solid Tumors (RECIST v1.1). Transvaginal ultrasound scans were performed to monitor endometrial thickness at screening, at every 6 months from C1D1, and at the end of treatment. […]

ERα = system: ERα; parameters: method as in PMID 27410477; settings: MCF-7 breast cancer cell; cited from earlier work
[4] = system: tamoxifen-resistant ER + breast cancer xenograft; settings: tamoxifen-resistant ER + breast cancer xenograft models; cited from earlier work
CYP2C enzymes = system: CYP2C enzymes; parameters: method as in printed; settings: stated as reason for dose adjustments; ref not given; cited from earlier work

CC/C(=C(/c1ccc(/C=C/C(=O)O)cc1)c1ccc2[nH]ncc2c1)c1ccc(F)cc1Cl [GDC-0810]
patients remaining on study treatment for 2 years [1]: Two
effects on CYP2B6 (CYP2B6): inhibitory effects
tumor regression [2]: induced tumor regression
patients with an increase in the thickness of endometrium compared to baseline ([3]; 10 patients in phase Ia with baseline and at least one follow-up scan): 9 (90%) n (%)
change in endometrial thickness, range ([3]; phase Ia): 0 to 11 mm
mean change in endometrial thickness ([3]; phase Ia): 4.4 mm
median change in endometrial thickness ([3]; phase Ia): 3.5 mm
proteasomal degradation of ERα (ERα): induced proteasomal degradation of ERα
response of ER to estrogens (ERα): fully antagonized
tumor regression [4]: induced tumor regression
effects on CYP2C enzymes (CYP2C enzymes): inhibitory effects
